Laboratory results published in patent US7368467B2, “Ion channel modulators” (Wyeth, priority 2004, dated 2008).

System: calcium channel (e.g., L-type, N-type, etc.)
Assay: HEK assay, whole-cell voltage clamp of calcium channel currents in transiently transfected HEK-293T/17 cells
Type: cell-based
Conditions: whole-cell patch clamp, holding potential −100 mV, steps to about +10 mV
Protocol: HEK-293T/17 cells are transiently transfected in a similar manner as described in FuGENE 6 Package Insert Version 7, April 2002, Roche Applied Science, Indianapolis, Ind. The cells are plated at 2.5×10^5 cells in 2 mL in a 6-well plate in incubator for one night and achieve a 30˜40% confluence. In a small sterile tube, add sufficient serum-free medium as diluent for FuGENE Transfection Reagent (Roche Applied Science, Indianapolis, Ind.), to a total volume of 100 μL. Add 3 μL of FuGENE 6 Reagent directly into this medium. The mixture is tapped gently to mix. 2 μg of DNA solution (0.8-2.0 μg/μL) is added to the prediluted FuGENE 6 Reagent from above. The DNA/Fugene 6 mixture is gently pipeted to mix the contents and incubated for about 15 minutes at room temperature. The complex mixture is then added to the HEK-293T/17 cells, distributing it around the well, and swirled to ensure even dispersal. The cells are returned to the incubator for 24 hrs. The transfected cells are then replated at density 2.5×10^5 in a 35 mm dish with 5 glass coverslips and grow in low serum(1%) media for 24 hrs. Coverslips with isolated cells are then transferred into chamber and calcium channel (e.g., L-type, N-type, etc.) current or other currents for counter screening are recorded from the transiently transfected HEK-293T/1 7 cells.
The whole-cell voltage clamp configuration of the patch clamp technique is employed to evaluate voltage-dependent calcium currents essentially as described by Thompson and Wong (1991) J. Physiol., 439: 671-689. To record calcium channel (e.g., L-type, N-type, etc.) currents for evaluation of inhibitory potency of compounds (steady-state concentration-response analysis), five pulses of 20-30 ms voltage steps to about +10 mV (the peak of the current voltage relationship) are delivered at five Hz every 30 second from a holding potential at −100 mV. Compound evaluations were carried out essentially as described by Sah D W and Bean B P (1994) Mol Pharmacol. 45(1):84-92. Table 3 contains IC50's for representative compounds.

Row | IC50 [µM] | Structure (SMILES)
1 | 0.328 | Cc1ccc(F)cc1-c1cnc(SCc2nc3ccccc3[nH]2)n1-c1ccc(Cl)cc1 [Compound 13]
2 | 0.793 | COc1ccc(OC)c(-c2cnc(SCc3nc4ccccc4[nH]3)n2-c2ccc(Cl)cc2)c1 [Compound 7]
3 | 0.187 | COc1ccccc1-c1cnc(SCc2cnc(C)s2)n1-c1ccc(Cl)cc1 [Compound 8]

System: calcium channels (e.g., Cav2.2 subfamily)
Assay: Oocyte assay, calcium channel modulation in Xenopus oocyte heterologous expression system
Type: cell-based
Conditions: calcium channel (e.g., Cav2.2 subfamily)
Protocol: Representative compounds of the formulae herein are screened for activity against calcium channel targets in an assay essentially as described in Neuron January 1997, 18(11): 153-166, Lin et. al.; J. Neurosci. Jul. 1, 2000, 20(13):4768-75, J. Pan and D. Lipsombe; and J. Neurosci., Aug. 15, 2001, 21(16):5944-5951, W. Xu and D. Lipscombe, using Xenopus oocyte heterologeous expression system. The assay is performed on various calcium channels (e.g., Cav2.2subfamily) whereby the modulation of the calcium channel is measured for each compound. Table 2 contains IC50's for representative compounds disclosed in the invention.

Row | IC50 [µM] | Structure (SMILES)
4 | 6.63 | Cc1ccc(-n2c(-c3ccccc3)cnc2SCc2nc3ccccc3[nH]2)cc1 [Compound 2]
5 | 5.7 | Cc1ccc(-n2c(-c3ccc(F)cc3)cnc2SCc2nc3ccccc3[nH]2)cc1 [Compound 4]
6 | 5.4 | COc1ccc(-n2c(-c3ccc(F)cc3)cnc2SCC(=O)NCc2ccco2)cc1 [Compound 234]
